Results reported in patent US11266664B2, “Use of homosalate and octyl salicylate to treat multiple sclerosis” (Wisconsin Alumni Research Foundation, priority 2016, dated 2022).
Entries after “also recorded” stand apart in the source; their conditions may differ.

Columns and labels:
[1] = Adverse effects of topical application; assay type: in vivo, mice
ear edema = ear edema test in mice, reference 7; cited from earlier work
EAE mice = test: MOG35-55-induced EAE in mice, daily clinical score (0-5); assay type: in vivo; conditions: for Mean Severity / CDI / Day of onset: as E1, mean ± SD; for Mean Severity: clinical score 0-5 averaged over the entire experiment; for CDI: clinical scores summed per animal, divided by mice per group; for Effective topical dose in a mouse model: daily; for Dose dependence of EAE suppression: topical 10, 20 and 30 μl or 0.5, 1.0, 1.5 g/kg (FIG. 8A); for Suppression of EAE (mean clinical score) by sunscreen ingredients: topical daily day 0-30, amount equal to that in the sunscreen: homosalate 1.5 g/kg, octisalate 0.5 g/kg, 12% avobenzone, 16% oxybenzone in 25 μl DMSO; for Incidence: topical daily day 0-30, homosalate 30 μl (1.5 g/kg), octisalate 10 μl (0.5 g/kg), sunscreen spray 200 μl, N=11-12, * P<0.05 vs Control; for Suppression of EAE at 1.5 g/kg: topical, ca 1.5 g/kg
Procedure: Animals and Diet. Female C57BL/6 mice (8-9 weeks old) purchased from Jackson Laboratory were fed a standard lab diet chow 5008 (Purina Mills, Richmond, Ind.) and maintained in the Department of Biochemistry's vivarium. The mice were exposed to 12 h light-dark cycles. All procedures were approved by the Research Animal Resources Committee of the College of Agricultural & Life Sciences, University of Wisconsin-Madison. The mice were randomly divided into groups for different treatment (12 mice/group).
Mice were shaved on their back to receive sunscreen or NBUVB radiation. The following Sunscreen cream or spray was used in our study (See Appendix A): 1. Coppertone spray (SPF 50, MSD Consumer Care, Inc., Memphis, Tenn.); 2. Coppertone water babies (SPF 50, MSD Consumer Care, Inc., Memphis, Tenn.); 3. Hawaiian Tropic (SPF 50, Energizer Personal Care, LLC, Shelton, Conn.); 4. Kiss my face (SPF 50, Kiss My Face, LLC, Gardiner, N.Y.); 5. Blue Lizard Australian Sunscreen (SPF 30, Crown Laboratories, Johnson, Tenn.); 6. Banana Boat Kids (SPF 50, Energizer Personal Care, LLC, Shelton, Conn.); 7. CoTZ Face (SPF40, CoTZ Skincare, West Norriton, Pa.). The sunscreen was applied manually to cover the shaved skin daily depending on the experimental schedule. Four main active ingredients (avobenzone; oxibenzone; homosalate; octyl salicylate) were purchased from Spectrum Chemical MFG. Corp. (New Brunswick, N.J.). The total dose of each ingredient administrated topically on each mouse skin was equal to the amount of the ingredient in the sunscreen.
In this experiment, mice were immunized with myelin oligodendrocyte glycoprotein peptide (MOG)35-55. MOG35-55 kit (EK-2110) was purchased from Hooke lab (Lawrence, Mass.). Each mouse was immunized with subcutaneous injection of 20 μl MOG35-55/CFA emulsion and intraperitoneally injection with 200 ng of pertussis toxin (List Biological Laboratories) diluted in sterile PBS. The second booster pertussis toxin injection was given 48 hours later. Each mouse was scored daily for clinical signs of EAE using the following scale: 0, no clinical disease; 1, loss of tail tone; 2, unsteady gait; 3, hind limb paralysis; 4, forelimb paralysis; 5, death.
Onset was calculated by averaging the first day when clinical signs appeared and continued for at least 2 days. Mean severity was determined by averaging the clinical scores during the entire experiment. The CDI (clinical disease index) was calculated by summing the clinical scores in each animal and divided by the number of mice per group. Statistical analyses were performed using the two-tailed Fisher exact probability test for incidence, the Mann-Whitney nonparametric u test for clinical scores, and the unpaired Student t test for all other measurements. A value of P<0.05 was considered statistically significant.
Female C57BL/6 mice (8-10 weeks old) purchased from Jackson Laboratory (Bar Harbor, Me.) were fed a standard lab chow 5008 (Purina Mills, Richmond, Ind.). The mice were exposed to 12 h light-dark cycles. In one experiment the animals were kept in darkness at all times. All procedures were approved by the Institutional Animal Care and Use Committee of the College of Agricultural & Life Sciences, University of Wisconsin-Madison.
Mice were immunized with MOG35-55 kit (EK-2110, purchased from Hooke lab (Lawrence, Mass.)). Each mouse was immunized with a subcutaneous injection of 20 μl MOG35-55/CFA emulsion and an intraperitoneal injection with 200 ng of pertussis toxin (List Biological Laboratories) diluted in sterile PBS (14). A second booster pertussis toxin injection was given 48 hours later. Each mouse was scored daily for clinical signs of EAE using the following scale: 0, no clinical disease; 1, loss of tail tone; 2, unsteady gait; 3, hindlimb paralysis; 4, forelimb paralysis; 5, death (15).
Sunscreen creams or spray applied topically to the shaved back skin of the mice daily are shown below (Table 2): 1. […]

rabbits = conditions: unpublished; cited from earlier work
[2] = Body weight of EAE mice, weighed weekly; assay type: in vivo; conditions: for Body weight at three doses: topical 0.5, 1.0, 1.5 g/kg, all treatments except homosalate 0.5 g/kg (FIG. 8B); for Body weight of EAE mice given sunscreen ingredients: topical daily day 0-30, amount equal to that in the sunscreen
Procedure: Referring to FIGS. 2A and 2B, we analyzed different sunscreen ingredients. […] Mice were treated with ingredients (avobenzone, oxybenzone or combination) of sunscreen by topical administration daily during EAE (day 0-day 30). Sunscreen spray 200 μl was also used as a positive control. Each mouse was scored daily and weighed weekly during the experiment (30 days). Data are expressed as mean value, N=10-12/group.
Mice were treated with ingredients (homosalate, octyl salicylate or combination) of sunscreen by topical administration daily during EAE (day 0-day 30). Sunscreen spray 200 μl daily was used as a positive control. Mice were scored daily and weighed weekly. Data were expressed as mean value, N=10-12/group.

MS = conditions: studied in 1961, reference 9; cited from earlier work

Row | SMILES | Adverse effect [1] | Mean Severity (EAE mice) | CDI (EAE mice) | Day of onset (EAE mice) | Effective topical dose in a mouse model (EAE mice) | Suppression of EAE (mean clinical score) by sunscreen ingredients (EAE mice) | Incidence (EAE mice) | Suppression of EAE at 1.5 g/kg (EAE mice) | Body weight of EAE mice given sunscreen ingredients [2] | other results
1 | CC1CC(OC(=O)c2ccccc2O)CC(C)(C)C1 (centres unmarked) [Homosalate, 3,3,5-trimethylcyclohexyl 2-hydrobenzoate] | temporary mild skin irritation | 1.3 ± 0.0 | 1 ± 0 | 22 ± 0 | 1500 mg/kg | significantly suppress EAE | 8% (1/12) * | equally active; also recorded: completely blocked EAE | without affecting body weight | Anti-inflammatory effect (ear edema): demonstrated; Effectiveness when applied less frequently than each day (EAE mice; homosalate 1.5 g/kg topically (FIGS. 8C and 8D)): effectiveness diminished; Mean EAE score, applied every day and every 2-day (EAE mice; homosalate 30 μl or 1.5 g/kg topically (FIGS. 8C and 8D), p<0.05): significantly lower than control; Dose dependence of EAE suppression (EAE mice): dose-dependent suppression of EAE; also recorded: dose dependent suppression of EAE; Suppression of EAE (mean clinical score) by sunscreen ingredients (EAE mice; listed as homosalate): dramatically suppress EAE development; also recorded: provide the protection; also recorded: dramatically suppressed EAE severity; also recorded: complete suppression of EAE; also recorded: almost completely prevented EAE development; Acute dermal toxicity LD50 (rabbits): > 5000 mg/kg; Body weight at three doses [2]: increased the body weight; also recorded: significantly different from control
2 | CC(=O)Oc1ccccc1C(=O)O [aspirin, acetylsalicylic acid] |  |  |  |  |  |  |  |  |  | Relationship between aspirin and MS, control vs treated group (MS): without a significant difference between the control and treated group
3 | COc1ccc(C(=O)CC(=O)c2ccc(C(C)(C)C)cc2)cc1 [avobenzone, reference compound] |  |  |  |  |  | partially suppress EAE severity; also recorded: little to no significant suppression of EAE; also recorded: fail to suppress EAE; also recorded: slightly suppressed disease progression |  |  | no significant change in body weight | Suppression of EAE (mean clinical score) by sunscreen ingredients (EAE mice; listed as Avobenzone): partially suppress EAE severity
4 | CCCCC(CC)COC(=O)c1ccccc1O (centres unmarked) [octyl salicylate, 2-ethylhexyl salicylate] | temporary mild skin irritation | 2.0 ± 0.8 | 20 ± 1 | 18 ± 3 | 500 mg/kg | dramatically suppress EAE development; also recorded: provide the protection; also recorded: almost completely prevented EAE development | 75% (9/12) | equally active | without affecting body weight | Dose dependence of EAE suppression (EAE mice; listed as octisalate): dose-dependent suppression of EAE; also recorded: dose dependent suppression of EAE; Suppression of EAE (mean clinical score) by sunscreen ingredients (EAE mice; listed as Octisalate): moderate suppression but did not reach statistical significance; Suppression of EAE (mean clinical score) by sunscreen ingredients (EAE mice; listed as octisalate): complete suppression of EAE; also recorded: significantly suppress EAE; Body weight at three doses ([2]; listed as octisalate): increased the body weight; also recorded: significantly different from control
5 | COc1ccc(C(=O)c2ccccc2)c(O)c1 [oxybenzone, reference compound] |  |  |  |  |  | partially suppress EAE severity; also recorded: little to no significant suppression of EAE; also recorded: fail to suppress EAE; also recorded: slightly suppressed disease progression |  |  | no significant change in body weight | 
